Results as given in patent publication US20250188404A1, “CULTURE CAPSULE AND METHOD FOR RES[…] IN VIABLE BUT NON-CULTURABLE (VBNC) STATE” (Innovation Center of Yangtze River Delta, ZJU, priority 2023, published 2025).

Tested on: Salmonella ATCC14028 in a special dormant state
Assay: Resuscitation ("awakening") of VBNC Salmonella by nutrient added alone, pour-plate colony growth
Format: cell-based
Details: nutrient not encapsulated, more than 3 g egg yolk lecithin or more than 0.22 g cholesterol per 20 mL bacterial solution, static incubation 1 d to 7 d
Procedure: In the examples of the present disclosure, induced preparation of Salmonella ATCC14028 in a special dormant state: single colonies of Salmonella ATCC14028 are inoculated in a liquid medium and cultivated at 37° C. and 180 rpm to a late logarithmic stage; a resulting bacterial solution is centrifuged at 6,000 rpm for 10 min, and a resulting supernatant is discarded; a resulting precipitate is washed twice with phosphate buffered saline (PBS) and then re-dissolved with PBS for later use, and a resulting bacterial solution is serially diluted to a concentration of 1*10^8 CFU/mL; 18 mL of PBS is added to a 50 mL centrifuge tube, the centrifuge tube is heated in a 60±2° C. water bath, and after the temperature in the centrifuge tube reaches 60±2° C., 2 mL of a 1*10^8 CFU/mL bacterial solution is added to the centrifuge tube; a diluted bacterial solution is magnetically stirred and heated for 20 min, and then immediately taken out and placed in ice for later use; a cooled bacterial solution is centrifuged at 7,000 rpm for 10 min, a resulting supernatant is discarded, and PBS is added to 20 mL for re-dissolution; and the treated bacterial solution is subjected to staining with a Live/Dead BacLight kit, and then the number of viable bacteria in the treated bacterial solution is detected by flow cytometry. […]

CC(C)CCC[C@@H](C)[C@H]1CC[C@H]2[C@@H]3CC=C4C[C@@H](O)CC[C@]4(C)[C@H]3CC[C@]12C [cholesterol]
"awakening" of bacteria in a special dormant state (growth of colonies): can “awaken” bacteria in a special dormant state
